Measurements reported in US6737383B1, “Herbicidal oxadiazolidines” (priority 1999, dated 2004).

Key:
Alexandergrass = assay: Test D Alexandergrass; assay type: in vivo, Brachiaria plantaginea; details: Rate 64 g/ha, Preemergence; 0 to 100 scale, 0 no injury, 100 complete control
Summary of the method: (§1)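 Weed seeds planted in sandy loam; species kept apart in individual pots or compartments. Preemergence tests: treatment to soil surface within one day. Greenhouse growth, then visual injury scoring at 14–21 days (0–100).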

large crabgrass = assay: Test D large crabgrass; assay type: in vivo, Digitaria sanguinalis; details: Rate 64 g/ha, Preemergence; 0 to 100 scale, 0 no injury, 100 complete control
Source text: Seeds, tubers, or plant parts of Alexandergrass (Brachiaria plantaginea), bermuda-grass (Cynodon dactylon), common pursiane (Portulaca oleracea), common ragweed (Ambrosia elatior), common groundsel (Senecio vulgaris), dallisgrass (Paspalum dilatatum), goosegrass (Eleusine indica), guineagrass (Panicum maximum), itchgrass (Rottboellia exaltata), Johnson grass (Sorghum halepense), large crabgrass (Digitaria sanguinalis), pitted morningglory (Ipomoea lacunosa), purple nutsedge (Cyperus rotundus), sandbur (Cenchrus echinatus), sourgrass (Trichachne insularis), Spanishneedles (Bidens bipinnata), surinam grass (Brachiaria decumbens) and tall mallow (Malva sylvestris) were planted into greenhouse pots of flats containing greenhouse planting medium. Plant species were grown in separate pots or individual compartments. Preemergence applications were made within one day of planting the seed or plant part.
Test chemicals were formulated in a non-phytotoxic solvent mixture which included a surfactant and applied preemergence to the surface of the pot containing seeds in a sandy loam soil. Untreated control pots and treated pots were placed in the greenhouse for growth and visually evaluated for injury 14 to 21 days after herbicide application. Plant response ratings, summarized in Table C, are based on a 0 to 100 scale where 0 is no injury and 100 is complete control. A dash (−) response means no test result.

dallisgrass = assay: Test D dallisgrass; assay type: in vivo, Paspalum dilatatum; details: Rate 64 g/ha, Preemergence; 0 to 100 scale, 0 no injury, 100 complete control
Summary of the method: as §1

itchgrass [1] = assay: Test D itchgrass; assay type: in vivo, Rottboellia exaltata; details: Rate 64 g/ha, Preemergence; 0 to 100 scale, 0 no injury, 100 complete control
Summary of the method: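 Scoring used a 0–100 visual injury scale, with 0 meaning no effect and 100 complete control, assessed 14–21 days after application alongside untreated pots. Preemergence treatments went onto sandy loam surfaces of separately potted seeds within a day of sowing.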

pitted morningglory = assay: Test D pitted morningglory; assay type: in vivo, Ipomoea lacunosa; details: Postemergence, 0 to 100 scale
Green foxtail [2] = assay: Test D green foxtail; assay type: in vivo; details: Postemergence, 0 to 100 scale, 0 no injury, 100 complete control
Green foxtail [3] = assay: Test D green foxtail; assay type: in vivo; details: Rate 250 g/ha; Postemergence; 0 to 100 scale
common pursiane = assay: Test D common purslane; assay type: in vivo, Portulaca oleracea; details: Postemergence, 0 to 100 scale
common ragweed = assay: Test D common ragweed; assay type: in vivo, Ambrosia elatior
goosegrass = assay: Test D goosegrass; assay type: in vivo, Eleusine indica; details: Postemergence, 0 to 100 scale
tall mallow = assay: Test D tall mallow; assay type: in vivo, Malva sylvestris; details: Postemergence, 0 to 100 scale
sandbur = assay: Test D sandbur; assay type: in vivo, Cenchrus echinatus; details: Postemergence, 0 to 100 scale
itchgrass [4] = assay: Test D itchgrass; assay type: in vivo, Rottboellia exaltata; details: Postemergence, 0 to 100 scale
Green foxtail [5] = assay: Test D green foxtail; assay type: in vivo; details: Postemergence, 0 to 100 scale, 0 no injury, 100 complete control; remark: listed apart in the source
Green foxtail [6] = assay: Test D green foxtail; assay type: in vivo; details: Postemergence, 0 to 100 scale, 0 no injury, 100 complete control; remark: listed apart in the source
[7] = Rate 16 g/ha, 0 no injury, 100 complete control
[8] = Rate 32 g/ha, 0 no injury, 100 complete control
[9] = Rate 64 g/ha, 0 no injury, 100 complete control
[10] = Rate 125 g/ha, 0 no injury, 100 complete control
[11] = Rate 32 g/ha; Postemergence; 0 to 100 scale, 0 no injury, 100 complete control
[12] = Rate 64 g/ha, Postemergence; 0 to 100 scale, 0 no injury, 100 complete control
[13] = Rate 125 g/ha, Postemergence; 0 to 100 scale, 0 no injury, 100 complete control
[14] = Rate 250 g/ha; Postemergence; 0 to 100 scale

C=C(C)Cn1c(=O)on(C(=O)N(c2ccc(F)cc2)C(C)C)c1=O [Compound 139]
60: Plant response rating, Alexandergrass (Alexandergrass)
20: Plant response rating, Itchgrass (itchgrass [1])
90: Plant response rating Large crabgrass (large crabgrass) | Plant response rating, Dallisgrass (dallisgrass)

CC(C)N(C(=O)n1oc(=O)n(C2CC2)c1=O)c1ccccc1 [Compound 243]
10: Plant response rating, C. ragweed (common ragweed; [12]) | Plant response rating, C. ragweed (common ragweed; [13]) | Plant response rating, Sandbur (sandbur; [7]) | Plant response rating, Itchgrass (itchgrass [4]; [10]) | Plant response rating, Green foxtail (Green foxtail [5]; Rate 16 g/ha) | Plant response rating, Green foxtail (Green foxtail [6]; Rate 16 g/ha)
20: Plant response rating, Tall Mallow (tall mallow; [8]) | Plant response rating, Sandbur (sandbur; [8])
30: Tall Mallow plant response rating (tall mallow; [9]) | Sandbur plant response rating (sandbur; [9]) | Sandbur plant response rating (sandbur; [10])
70: Plant response rating, Goosegrass (goosegrass; [7])
0: Plant response rating, P. morninglory (pitted morningglory; [7]) | Plant response rating, P. morninglory (pitted morningglory; [8]) | Plant response rating, P. morninglory (pitted morningglory; [9]) | Plant response rating, P. morninglory (pitted morningglory; [10]) | Plant response rating, C. purslane (common pursiane; [7]) | Plant response rating, C. purslane (common pursiane; [8]) | Plant response rating, C. purslane (common pursiane; [9]) | Plant response rating, C. purslane (common pursiane; [10]) | Plant response rating, C. purslane (common pursiane; Rate 250 g/ha) | Plant response rating, C. ragweed (common ragweed; Rate 16 g/ha; Postemergence; 0 to 100 scale, 0 no injury, 100 complete control) | Plant response rating, C. ragweed (common ragweed; [11]) | Plant response rating, Itchgrass (itchgrass [4]; [7]) | Plant response rating, Itchgrass (itchgrass [4]; [8]) | Plant response rating, Itchgrass (itchgrass [4]; [9])
80: Plant response rating, Goosegrass (goosegrass; [8])
40: Plant response rating, P. morninglory (pitted morningglory; Rate 250 g/ha) | Tall Mallow plant response rating (tall mallow; [10])
60: Plant response rating, C. ragweed (common ragweed; [14]) | Plant response rating, Tall Mallow (tall mallow; Rate 250 g/ha)
50: Plant response rating, Tall Mallow (tall mallow; [7])
100: Green foxtail plant response rating (Green foxtail [2]; Rate 64 g/ha) | Green foxtail plant response rating (Green foxtail [2]; Rate 125 g/ha) | Plant response rating, Green foxtail (Green foxtail [3]) | Plant response rating, Goosegrass (goosegrass; [9]) | Plant response rating, Goosegrass (goosegrass; [10]) | Plant response rating, Goosegrass (goosegrass; Rate 250 g/ha) | Plant response rating, Sandbur (sandbur; Rate 250 g/ha) | Plant response rating, Itchgrass (itchgrass [4]; Rate 250 g/ha) | Plant response rating, Green foxtail (Green foxtail [5]; Rate 32 g/ha) | Plant response rating, Green foxtail (Green foxtail [6]; Rate 32 g/ha)

COCC(C)n1c(=O)on(C(=O)N(c2ccc(F)cc2F)C(C)C)c1=O (stereo not shown) [Compound 352]
30: Tall Mallow plant response rating (tall mallow; [9]) | Tall Mallow plant response rating (tall mallow; [10])
0: Plant response rating, P. morninglory (pitted morningglory; [7]) | Plant response rating, P. morninglory (pitted morningglory; [8]) | Plant response rating, P. morninglory (pitted morningglory; [9]) | Plant response rating, P. morninglory (pitted morningglory; [10]) | Plant response rating, P. morninglory (pitted morningglory; Rate 250 g/ha) | Plant response rating, C. purslane (common pursiane; [7]) | Plant response rating, C. purslane (common pursiane; [8]) | Plant response rating, C. purslane (common pursiane; [9]) | Plant response rating, C. purslane (common pursiane; [10]) | Plant response rating, C. purslane (common pursiane; Rate 250 g/ha) | Plant response rating, C. ragweed (common ragweed; Postemergence; Rate 16 g/ha; 0 to 100 scale, 0 no injury, 100 complete control) | Plant response rating, C. ragweed (common ragweed; [11]) | Plant response rating, Goosegrass (goosegrass; [7]) | Plant response rating, Tall Mallow (tall mallow; [7]) | Plant response rating, Tall Mallow (tall mallow; [8]) | Plant response rating, Sandbur (sandbur; [7]) | Plant response rating, Itchgrass (itchgrass [4]; [7]) | Plant response rating, Itchgrass (itchgrass [4]; [8]) | Plant response rating, Itchgrass (itchgrass [4]; [9]) | Plant response rating, Green foxtail (Green foxtail [5]; Rate 16 g/ha) | Plant response rating, Green foxtail (Green foxtail [6]; Rate 16 g/ha)
60: Plant response rating, Itchgrass (itchgrass [4]; Rate 250 g/ha)
100: Green foxtail plant response rating (Green foxtail [2]; Rate 64 g/ha) | Green foxtail plant response rating (Green foxtail [2]; Rate 125 g/ha) | Plant response rating, Green foxtail (Green foxtail [3]) | Plant response rating, C. ragweed (common ragweed; [14]) | Plant response rating, Goosegrass (goosegrass; [9]) | Plant response rating, Goosegrass (goosegrass; [10]) | Plant response rating, Goosegrass (goosegrass; Rate 250 g/ha) | Sandbur plant response rating (sandbur; [10]) | Plant response rating, Sandbur (sandbur; Rate 250 g/ha) | Plant response rating, Green foxtail (Green foxtail [5]; Rate 32 g/ha) | Plant response rating, Green foxtail (Green foxtail [6]; Rate 32 g/ha)
20: Plant response rating, C. ragweed (common ragweed; [12]) | Plant response rating, C. ragweed (common ragweed; [13]) | Plant response rating, Tall Mallow (tall mallow; Rate 250 g/ha) | Plant response rating, Itchgrass (itchgrass [4]; [10])
90: Plant response rating, Goosegrass (goosegrass; [8]) | Plant response rating, Sandbur (sandbur; [8])
70: Sandbur plant response rating (sandbur; [9])
